The values below come from patent US20060141078A1, “Composition comprising a rice protein hydrolysate and an agent for increasing glycosaminoglycan synthesis” (L'OREAL, priority 2004, published 2006).

The assay concerns adipocytes. As to the kind of experiment: Hydrolysis of adipocyte triglycerides: release of non-esterified fatty acids (NEFA) into the medium (lipolysis). In kind it is cell-based. Conditions: for % activity vs Control: untreated control = 100.

Protocol: The adipocytes were isolated from an abdominal plasty and then incubated in the presence of collagenase, washed and taken up in test medium.
We then added the adipocyte suspension and the mixtures were incubated at 37° C. The NEFAs were assayed in the fractions of sub-adipocyte medium, after decantation. The assay was performed using an NEFA-C kit according to the manufacturer's instructions.
Two controls (a positive and a negative) of absence of interference of the product with the NEFA assay were performed.

Turning to `CC(C)NCC(O)c1ccc(O)c(O)c1` (centres unmarked) [Isoproterenol, isoproterenol], under “Example 1, 1 μM”, the NEFA was found to be 472.3 µM and the “% activity vs Control” value is given as 600%. Moreover, for the setting “Example 2, 1 μM”, the NEFA is 613.3 µM and the “% activity vs Control” value came out at 1849%.
As to `Cn1c(=O)c2[nH]cnc2n(C)c1=O` [Theophylline, theophylline], under “Example 1, 1 mM”, the NEFA amounted to 496.3 µM and the “% activity vs Control” value stood at 630%. In addition, where the note is “Example 2, 1 mM”, the NEFA came to 626.3 µM and the “% activity vs Control” value was determined as 1888%.
